# Reference: ChEMBL document CHEMBL1139396, “Novel N9-arenethenyl purines as potent dual Src/Abl tyrosine kinase inhibitors” (Bioorg Med Chem Lett, 2008)
# What was measured:
# K562 = test: Cytotoxicity against human K562 cells transfected with wild-type Bcr-Abl
# [1] = Cytotoxicity against mouse BA/F3 cells transfected with wild-type Bcr-Abl; conditions: BaF3
# [2] = target: Proto-oncogene tyrosine-protein kinase Src (Homo sapiens, UniProt P12931); test: Inhibition of human Src kinase by TR-FRET assay
# [3] = target: Tyrosine-protein kinase ABL1 (Homo sapiens, UniProt P00519)
# [4] = Cmax in rat at 5 mg/kg, po; format: ADME, organism-based; design: dose 5 mg/kg, route oral; conditions: in vivo
# [5] = Half life in rat at 5 mg/kg, iv; format: ADME, organism-based; design: dose 5 mg/kg, route intravenous; conditions: in vivo
# [6] = Oral bioavailability in rat at 5 mg/kg; format: ADME, organism-based; conditions: in vivo
# [7] = Half life in rat at 5 mg/kg, po; format: ADME, organism-based; design: dose 5 mg/kg, route oral; conditions: in vivo
# [8] = Cmax in rat at 5 mg/kg, iv; format: ADME, organism-based; design: dose 5 mg/kg, route intravenous; conditions: in vivo
# [9] = Volume of distribution at steady state in rat at 5 mg/kg, iv; format: ADME, organism-based; design: dose 5 mg/kg, route intravenous; conditions: in vivo, read-out: Vdss
# [10] = target: Vascular endothelial growth factor receptor 3 (Homo sapiens, UniProt P35916); test: Inhibition of Flt4
# Insulin receptor = Insulin receptor (Homo sapiens, UniProt P06213); test: Inhibition of InsR
# [11] = target: RAF proto-oncogene serine/threonine-protein kinase (Homo sapiens, UniProt P04049); test: Inhibition of c-Raf
# [12] = target: Vascular endothelial growth factor receptor 1 (Homo sapiens, UniProt P17948); test: Inhibition of Flt1
# [13] = target: Platelet-derived growth factor receptor alpha (Homo sapiens, UniProt P16234); test: Inhibition of PDGFRalpha
# [14] = target: Cyclin-dependent kinase 2 (Homo sapiens, UniProt P24941); test: Inhibition of CDK2/CyclinA
# Ephrin type-B receptor 4 = target: T1, Ephrin type-B receptor 4 (Homo sapiens, UniProt P54760); test: Inhibition of EphB4
# T1 sequence (P54760 whole entry): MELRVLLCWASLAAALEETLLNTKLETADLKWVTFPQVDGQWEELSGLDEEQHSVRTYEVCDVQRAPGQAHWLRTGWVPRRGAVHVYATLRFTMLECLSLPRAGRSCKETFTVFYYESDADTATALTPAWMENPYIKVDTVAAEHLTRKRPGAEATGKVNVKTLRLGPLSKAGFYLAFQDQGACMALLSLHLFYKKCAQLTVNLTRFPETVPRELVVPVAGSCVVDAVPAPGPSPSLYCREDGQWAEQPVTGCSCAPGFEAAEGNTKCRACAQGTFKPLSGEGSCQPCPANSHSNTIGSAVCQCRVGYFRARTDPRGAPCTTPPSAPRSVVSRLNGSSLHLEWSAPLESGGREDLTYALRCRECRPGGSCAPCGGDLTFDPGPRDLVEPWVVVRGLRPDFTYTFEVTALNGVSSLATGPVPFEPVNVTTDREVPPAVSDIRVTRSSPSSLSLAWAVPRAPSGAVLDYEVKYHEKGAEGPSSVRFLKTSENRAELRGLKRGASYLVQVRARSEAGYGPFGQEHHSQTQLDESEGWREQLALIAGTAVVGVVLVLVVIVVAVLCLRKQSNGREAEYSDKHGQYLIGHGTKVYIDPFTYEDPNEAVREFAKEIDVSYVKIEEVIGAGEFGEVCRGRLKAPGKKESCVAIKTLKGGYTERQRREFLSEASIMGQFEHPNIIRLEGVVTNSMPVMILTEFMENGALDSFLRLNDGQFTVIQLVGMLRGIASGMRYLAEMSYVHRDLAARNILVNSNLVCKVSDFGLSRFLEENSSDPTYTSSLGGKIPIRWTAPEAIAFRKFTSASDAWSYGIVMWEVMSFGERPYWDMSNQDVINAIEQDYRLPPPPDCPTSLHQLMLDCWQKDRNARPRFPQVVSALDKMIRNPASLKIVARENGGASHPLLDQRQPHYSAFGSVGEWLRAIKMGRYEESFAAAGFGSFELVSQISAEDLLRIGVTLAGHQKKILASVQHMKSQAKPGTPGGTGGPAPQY
# [15] = Inhibition of Aurora kinase
# [16] = target: Mast/stem cell growth factor receptor Kit (Homo sapiens, UniProt P10721); test: Inhibition of Kit
# Ephrin type-B receptor 1 = target: T2, Ephrin type-B receptor 1 (Homo sapiens, UniProt P54762); test: Inhibition of EphB1
# T2 sequence (P54762 whole entry): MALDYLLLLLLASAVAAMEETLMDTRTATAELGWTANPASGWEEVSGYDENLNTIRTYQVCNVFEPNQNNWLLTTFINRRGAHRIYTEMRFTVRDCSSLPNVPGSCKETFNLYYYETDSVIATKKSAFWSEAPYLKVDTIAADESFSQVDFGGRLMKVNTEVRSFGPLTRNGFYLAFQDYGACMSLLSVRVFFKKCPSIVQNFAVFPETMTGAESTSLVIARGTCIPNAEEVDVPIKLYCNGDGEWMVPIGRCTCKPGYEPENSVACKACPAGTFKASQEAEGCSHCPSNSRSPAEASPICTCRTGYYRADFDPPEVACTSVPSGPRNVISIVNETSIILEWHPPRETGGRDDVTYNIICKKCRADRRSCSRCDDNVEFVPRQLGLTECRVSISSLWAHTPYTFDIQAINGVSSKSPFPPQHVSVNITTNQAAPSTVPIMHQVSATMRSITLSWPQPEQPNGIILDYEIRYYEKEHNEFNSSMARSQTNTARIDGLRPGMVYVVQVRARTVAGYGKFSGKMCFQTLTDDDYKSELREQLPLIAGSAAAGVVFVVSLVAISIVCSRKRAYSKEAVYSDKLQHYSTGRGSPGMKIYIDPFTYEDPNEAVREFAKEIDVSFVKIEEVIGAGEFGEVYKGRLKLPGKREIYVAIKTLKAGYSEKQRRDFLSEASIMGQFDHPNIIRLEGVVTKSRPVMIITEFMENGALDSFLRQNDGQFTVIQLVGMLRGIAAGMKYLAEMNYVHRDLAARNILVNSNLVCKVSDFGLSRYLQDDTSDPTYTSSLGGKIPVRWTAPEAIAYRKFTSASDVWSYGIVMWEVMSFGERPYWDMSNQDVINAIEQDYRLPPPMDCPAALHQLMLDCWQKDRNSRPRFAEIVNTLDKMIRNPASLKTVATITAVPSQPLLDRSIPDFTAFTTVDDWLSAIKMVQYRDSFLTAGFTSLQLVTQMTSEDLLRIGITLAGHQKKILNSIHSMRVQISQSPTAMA
# [17] = target: Ephrin type-A receptor 7 (Homo sapiens) (UniProt Q15375); test: Inhibition of EphA7
# [18] = Inhibition of Abl […] mutant
# [19] = target: Macrophage colony-stimulating factor 1 receptor (Homo sapiens, UniProt P07333)
# Macrophage colony-stimulating factor 1 receptor, sequence (P07333 whole entry): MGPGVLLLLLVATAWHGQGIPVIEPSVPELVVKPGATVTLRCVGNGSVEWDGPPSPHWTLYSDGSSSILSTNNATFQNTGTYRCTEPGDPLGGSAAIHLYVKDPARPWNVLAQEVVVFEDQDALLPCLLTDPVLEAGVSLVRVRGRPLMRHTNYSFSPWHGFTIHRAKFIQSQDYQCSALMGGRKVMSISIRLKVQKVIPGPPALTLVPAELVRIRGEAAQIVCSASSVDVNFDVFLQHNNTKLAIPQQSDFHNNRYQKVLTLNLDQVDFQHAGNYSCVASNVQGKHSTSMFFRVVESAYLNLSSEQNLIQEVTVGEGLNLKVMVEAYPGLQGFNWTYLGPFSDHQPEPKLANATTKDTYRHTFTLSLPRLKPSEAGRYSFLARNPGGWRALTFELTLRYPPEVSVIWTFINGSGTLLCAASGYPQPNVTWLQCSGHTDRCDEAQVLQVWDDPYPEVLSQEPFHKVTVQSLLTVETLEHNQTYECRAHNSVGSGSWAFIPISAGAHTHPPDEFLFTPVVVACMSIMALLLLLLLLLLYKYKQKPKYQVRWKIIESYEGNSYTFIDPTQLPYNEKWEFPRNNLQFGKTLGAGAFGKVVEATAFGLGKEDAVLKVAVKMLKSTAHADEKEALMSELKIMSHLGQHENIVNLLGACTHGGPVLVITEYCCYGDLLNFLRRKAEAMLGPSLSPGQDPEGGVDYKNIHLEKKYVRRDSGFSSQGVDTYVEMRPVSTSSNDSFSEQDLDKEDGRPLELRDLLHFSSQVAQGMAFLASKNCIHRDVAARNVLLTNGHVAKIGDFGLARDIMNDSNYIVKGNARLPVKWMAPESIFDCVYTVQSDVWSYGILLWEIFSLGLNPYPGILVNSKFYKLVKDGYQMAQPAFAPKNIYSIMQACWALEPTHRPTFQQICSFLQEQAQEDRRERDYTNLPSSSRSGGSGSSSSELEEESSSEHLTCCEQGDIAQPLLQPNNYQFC
# Tyrosine-protein kinase ABL1, sequence (P00519 whole entry): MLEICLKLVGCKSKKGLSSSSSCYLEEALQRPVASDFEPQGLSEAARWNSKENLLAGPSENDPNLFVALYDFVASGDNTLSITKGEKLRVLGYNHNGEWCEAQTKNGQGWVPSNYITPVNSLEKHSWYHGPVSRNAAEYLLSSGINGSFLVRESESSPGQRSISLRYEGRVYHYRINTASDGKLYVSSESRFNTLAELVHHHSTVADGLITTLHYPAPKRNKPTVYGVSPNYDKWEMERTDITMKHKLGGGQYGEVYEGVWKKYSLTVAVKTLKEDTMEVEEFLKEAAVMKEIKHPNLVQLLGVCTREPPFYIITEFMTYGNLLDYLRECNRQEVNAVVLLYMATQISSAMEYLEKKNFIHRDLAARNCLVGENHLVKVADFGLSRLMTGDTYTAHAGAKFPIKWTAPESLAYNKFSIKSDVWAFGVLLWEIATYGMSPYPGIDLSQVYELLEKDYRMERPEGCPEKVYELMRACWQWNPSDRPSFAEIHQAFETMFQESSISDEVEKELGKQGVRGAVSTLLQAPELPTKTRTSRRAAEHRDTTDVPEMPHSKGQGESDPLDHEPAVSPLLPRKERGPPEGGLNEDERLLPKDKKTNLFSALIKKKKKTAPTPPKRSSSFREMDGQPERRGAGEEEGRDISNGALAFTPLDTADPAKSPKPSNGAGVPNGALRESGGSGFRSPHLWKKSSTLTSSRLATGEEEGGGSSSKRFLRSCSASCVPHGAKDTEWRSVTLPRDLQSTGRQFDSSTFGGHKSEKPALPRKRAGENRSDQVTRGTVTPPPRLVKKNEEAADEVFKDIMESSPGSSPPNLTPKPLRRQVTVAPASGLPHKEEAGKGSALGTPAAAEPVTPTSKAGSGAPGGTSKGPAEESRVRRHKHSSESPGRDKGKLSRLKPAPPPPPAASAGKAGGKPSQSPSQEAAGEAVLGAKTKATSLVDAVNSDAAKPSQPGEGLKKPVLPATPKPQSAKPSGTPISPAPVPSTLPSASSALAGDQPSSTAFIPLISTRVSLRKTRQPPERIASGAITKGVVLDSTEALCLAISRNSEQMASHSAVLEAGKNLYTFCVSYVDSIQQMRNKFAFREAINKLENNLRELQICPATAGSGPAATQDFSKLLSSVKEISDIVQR
# Proto-oncogene tyrosine-protein kinase Src, sequence (P12931 2-536 limits assumed): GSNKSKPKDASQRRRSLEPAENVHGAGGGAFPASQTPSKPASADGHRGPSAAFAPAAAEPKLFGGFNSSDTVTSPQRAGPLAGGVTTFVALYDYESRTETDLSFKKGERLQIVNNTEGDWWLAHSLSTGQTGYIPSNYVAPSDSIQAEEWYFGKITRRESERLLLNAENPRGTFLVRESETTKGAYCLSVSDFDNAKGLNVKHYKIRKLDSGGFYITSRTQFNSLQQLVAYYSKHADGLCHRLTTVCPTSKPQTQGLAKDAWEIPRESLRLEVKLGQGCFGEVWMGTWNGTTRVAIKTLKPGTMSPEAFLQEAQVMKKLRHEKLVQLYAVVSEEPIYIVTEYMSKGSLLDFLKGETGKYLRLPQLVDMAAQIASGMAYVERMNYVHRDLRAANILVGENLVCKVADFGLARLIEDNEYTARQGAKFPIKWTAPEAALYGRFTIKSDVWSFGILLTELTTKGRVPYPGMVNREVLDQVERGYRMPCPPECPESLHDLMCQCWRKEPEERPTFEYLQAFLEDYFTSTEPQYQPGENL
# Vascular endothelial growth factor receptor 1, sequence (P17948 whole entry): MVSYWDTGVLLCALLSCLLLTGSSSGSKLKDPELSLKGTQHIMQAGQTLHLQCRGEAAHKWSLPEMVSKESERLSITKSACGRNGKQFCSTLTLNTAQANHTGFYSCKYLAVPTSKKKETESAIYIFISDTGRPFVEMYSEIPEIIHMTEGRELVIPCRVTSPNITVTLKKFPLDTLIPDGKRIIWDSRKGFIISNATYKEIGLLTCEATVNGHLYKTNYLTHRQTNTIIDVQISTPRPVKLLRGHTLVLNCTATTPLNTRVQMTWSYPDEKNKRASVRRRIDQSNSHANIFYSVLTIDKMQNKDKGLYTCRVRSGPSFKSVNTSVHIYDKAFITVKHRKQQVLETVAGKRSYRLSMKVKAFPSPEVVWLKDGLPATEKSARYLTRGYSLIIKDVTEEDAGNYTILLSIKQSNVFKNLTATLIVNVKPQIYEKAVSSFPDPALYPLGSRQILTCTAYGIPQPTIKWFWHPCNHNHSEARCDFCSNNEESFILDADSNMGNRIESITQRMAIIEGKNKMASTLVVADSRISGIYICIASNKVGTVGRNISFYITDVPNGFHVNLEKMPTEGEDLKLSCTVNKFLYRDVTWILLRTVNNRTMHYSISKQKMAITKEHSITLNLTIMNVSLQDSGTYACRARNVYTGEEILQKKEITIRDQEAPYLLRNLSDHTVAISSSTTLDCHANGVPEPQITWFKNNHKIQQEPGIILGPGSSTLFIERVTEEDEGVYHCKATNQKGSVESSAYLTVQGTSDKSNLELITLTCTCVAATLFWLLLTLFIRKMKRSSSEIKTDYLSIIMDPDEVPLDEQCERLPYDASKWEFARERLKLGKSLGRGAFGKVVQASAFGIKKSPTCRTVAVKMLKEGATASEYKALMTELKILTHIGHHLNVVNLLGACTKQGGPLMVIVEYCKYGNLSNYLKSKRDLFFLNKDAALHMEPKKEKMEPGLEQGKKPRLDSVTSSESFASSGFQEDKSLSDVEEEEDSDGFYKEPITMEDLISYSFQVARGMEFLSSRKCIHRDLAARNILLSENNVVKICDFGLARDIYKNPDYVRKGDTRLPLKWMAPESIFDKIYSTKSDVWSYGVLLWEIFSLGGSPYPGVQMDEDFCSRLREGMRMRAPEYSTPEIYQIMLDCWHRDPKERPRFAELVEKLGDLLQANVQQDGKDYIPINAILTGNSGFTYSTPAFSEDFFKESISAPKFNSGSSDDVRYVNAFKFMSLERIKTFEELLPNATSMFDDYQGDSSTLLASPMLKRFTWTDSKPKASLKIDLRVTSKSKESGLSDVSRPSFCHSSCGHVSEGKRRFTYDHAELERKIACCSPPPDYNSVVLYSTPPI
# Platelet-derived growth factor receptor alpha, sequence (P16234 whole entry): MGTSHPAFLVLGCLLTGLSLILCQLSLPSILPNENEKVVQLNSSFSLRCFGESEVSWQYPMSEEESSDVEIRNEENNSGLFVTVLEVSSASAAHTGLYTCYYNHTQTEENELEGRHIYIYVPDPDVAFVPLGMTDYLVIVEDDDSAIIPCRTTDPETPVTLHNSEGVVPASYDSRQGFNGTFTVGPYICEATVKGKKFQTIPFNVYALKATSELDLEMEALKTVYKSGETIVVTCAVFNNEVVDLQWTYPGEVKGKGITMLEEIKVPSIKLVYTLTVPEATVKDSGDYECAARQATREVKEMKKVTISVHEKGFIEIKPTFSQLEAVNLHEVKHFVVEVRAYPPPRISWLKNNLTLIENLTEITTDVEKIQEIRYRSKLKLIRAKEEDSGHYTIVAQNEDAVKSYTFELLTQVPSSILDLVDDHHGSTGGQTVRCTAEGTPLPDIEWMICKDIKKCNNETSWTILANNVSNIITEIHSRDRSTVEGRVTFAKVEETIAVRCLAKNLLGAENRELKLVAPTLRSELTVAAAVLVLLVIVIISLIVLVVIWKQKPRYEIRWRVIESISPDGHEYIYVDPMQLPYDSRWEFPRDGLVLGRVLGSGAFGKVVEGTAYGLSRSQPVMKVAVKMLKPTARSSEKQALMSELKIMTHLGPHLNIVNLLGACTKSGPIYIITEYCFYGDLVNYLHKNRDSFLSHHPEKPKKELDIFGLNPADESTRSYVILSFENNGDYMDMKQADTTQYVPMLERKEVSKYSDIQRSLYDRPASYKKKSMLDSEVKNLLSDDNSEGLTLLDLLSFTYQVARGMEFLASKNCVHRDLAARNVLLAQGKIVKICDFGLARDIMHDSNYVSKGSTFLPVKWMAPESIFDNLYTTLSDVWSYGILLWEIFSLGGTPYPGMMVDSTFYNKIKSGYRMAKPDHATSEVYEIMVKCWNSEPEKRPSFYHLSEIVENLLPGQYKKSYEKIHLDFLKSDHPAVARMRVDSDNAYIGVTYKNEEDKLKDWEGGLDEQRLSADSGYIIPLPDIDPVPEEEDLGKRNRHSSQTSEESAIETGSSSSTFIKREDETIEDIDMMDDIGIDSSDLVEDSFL
Compound,IC50 (K562),IC50 [1],IC50 [2],IC50 [3],further results
Cc1cccc(C)c1/C=C/n1cnc2c(Nc3ccc(P(C)(C)=O)cc3)nc(N3CCCC3)nc21,89.1 nM,123 nM,–,–,–
CP(C)(=O)c1ccc(Nc2ncnc3c2ncn3/C=C/c2cccc3[nH]ncc23)cc1,355 nM,850 nM,–,–,–
Cc1cccc(C)c1/C=C/n1cnc2c(Nc3ccc(P(C)(C)=O)cc3)nc(N3CCOCC3)nc21,–,20.8 nM,< 0.23 nM,3.02 nM,–
Cc1cccc(Cl)c1/C=C/n1cnc2c(Nc3ccc(P(C)(C)=O)cc3)ncnc21,109 nM,200 nM,–,–,Cmax [4]: 1680 ng/mL; half-life [5]: 2.74 h; bioavailability [6]: 17%; half-life [7]: 3.3 h; Cmax [8]: 4590 ng/mL; Vd [9]: 2.74 L/kg
CP(C)(=O)c1ccc(Nc2ncnc3c2ncn3/C=C/c2cccc3[nH]ccc23)cc1,954 nM,1540 nM,–,–,–
CCCP(=O)(CCC)c1ccc(Nc2ncnc3c2ncn3/C=C/c2c(C)cccc2C)cc1,368 nM,286 nM,–,–,half-life [5]: 1.2 h; bioavailability [6]: 0%; Cmax [8]: 5140 ng/mL; Vd [9]: 2.7 L/kg
Cc1cccc(C)c1/C=C/n1cnc2c(Nc3ccc(P(C)(C)=O)cc3)nc(N(C)C)nc21,217 nM,269 nM,–,–,–
Cc1cccc(C)c1/C=C/n1cnc2c(Nc3ccc(P(C)(C)=O)cc3)nc(-n3ccnc3)nc21,53.7 nM,–,< 0.46 nM,1.63 nM,–
Cc1cccc(C)c1/C=C/n1cnc2c(Nc3ccc(P(C)(C)=O)cc3)nc(C(C)C)nc21,22.7 nM,27.1 nM,–,–,Cmax [4]: 478 ng/mL; half-life [5]: 7.5 h; bioavailability [6]: 25%; half-life [7]: 5.1 h; Cmax [8]: 1220 ng/mL; Vd [9]: 5.4 L/kg
Cc1cccc(C)c1/C=C/n1cnc2c(Nc3ccc(P(C)(C)=O)cc3)nc(C3CCCC3)nc21,224 nM,–,–,–,–
COCCOc1nc(Nc2ccc(P(C)(C)=O)cc2)c2ncn(/C=C/c3c(C)cccc3C)c2n1,26.7 nM,51.7 nM,< 0.46 nM,1.57 nM,–
Cc1cccc(C)c1/C=C/n1cnc2c(Nc3ccc(P(C)(C)=O)cc3)nc(C3CCN(C)CC3)nc21,28 nM,285 nM,< 0.46 nM,< 0.46 nM,–
CCCP(=O)(CCC)c1ccc(Nc2nc(C(C)C)nc3c2ncn3/C=C/c2ccccc2)cc1,> 1000 nM,–,–,–,–
CCCP(=O)(CCC)c1ccc(Nc2nc(C(C)C)nc3c2ncn3/C=C\c2ccccc2)cc1,> 1000 nM,–,–,–,–
Cc1cccc(C)c1/C=C/n1cnc2c(Nc3ccc(P(C)(C)=O)cc3)ncnc21,109 nM,168 nM,8.31 nM,3.58 nM,Cmax [4]: 1280 ng/mL; IC50 [10]: 151 nM; half-life [5]: 3.93 h; bioavailability [6]: 20%; IC50 (Insulin receptor): > 1000 nM; IC50 [11]: 21 nM; IC50 [12]: 591 nM; IC50 [13]: 221 nM; half-life [7]: 5 h; IC50 [14]: > 1000 nM; IC50 (Ephrin type-B receptor 4): 30 nM; Cmax [8]: 4320 ng/mL; IC50 [15]: > 1000 nM; IC50 [16]: 414 nM; IC50 (Ephrin type-B receptor 1): 6 nM; IC50 [17]: > 1000 nM; IC50 [18]: > 1000 nM; Vd [9]: 0.98 L/kg; IC50 [19]: 3 nM
COc1nc(Nc2ccc(P(C)(C)=O)cc2)c2ncn(/C=C/c3c(C)cccc3C)c2n1,52.4 nM,32.7 nM,< 0.46 nM,1.8 nM,–
Cc1cccc(C)c1/C=C/n1cnc2c(Nc3ccc(P(C)(C)=O)cc3)nc(N3CCN(C)CC3)nc21,23.5 nM,73.7 nM,< 0.23 nM,6.8 nM,–
CP(C)(=O)c1ccc(Nc2ncnc3c2ncn3/C=C/c2ccccc2Cl)cc1,1390 nM,2010 nM,–,–,–
Cc1ccc2[nH]ncc2c1/C=C/n1cnc2c(Nc3ccc(P(C)(C)=O)cc3)ncnc21,10.5 nM,37.3 nM,< 0.46 nM,< 0.46 nM,Cmax [4]: 22 ng/mL; half-life [5]: 1.2 h; bioavailability [6]: 0%; Cmax [8]: 7080 ng/mL; Vd [9]: 1.9 L/kg
Cc1cccc(C)c1/C=C/n1cnc2c(Nc3ccc(P(C)(C)=O)cc3)nc(OC(C)C)nc21,40.6 nM,34.8 nM,< 0.46 nM,7.32 nM,–
Cc1cccc(C)c1/C=C/n1cnc2c(Nc3ccc(P(C)(C)=O)cc3)nc(CCC#N)nc21,15.8 nM,38.6 nM,< 0.46 nM,< 0.46 nM,–
Cc1cccc(C)c1/C=C/n1cnc2c(Nc3ccc(P(C)(C)=O)cc3)nc(Oc3cccnc3)nc21,8.5 nM,35.1 nM,< 0.46 nM,0.5 nM,–
CCCP(=O)(CCC)c1ccc(Nc2nc(C(C)C)nc3c2ncn3/C=C\c2c(C)cccc2C)cc1,964 nM,–,–,–,–
CCCP(=O)(CCC)c1ccc(Nc2nc(C(C)C)nc3c2ncn3/C=C/c2c(C)cccc2C)cc1,115 nM,122 nM,–,–,–
